Laboratory results taken from PubChem BioAssay (NCI).
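The compound was tested at five concentrations on cells cultured in 96-well plates, with a 48-hour exposure period. The concentration for 50% growth inhibition is given as GI50. The concentration for full growth arrest is given as TGI.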

Tests used:
Test in all cases: growth of human tumour cells (NCI), 48 h
786-0 renal = test system: 786-0 renal
A498 renal = test system: A498 renal
A549 NSCLC = test system: A549 NSCLC
ACHN renal = test system: ACHN renal
BT-549 breast = test system: BT-549 breast
CAKI-1 renal = test system: CAKI-1 renal
COLO 205 colon = test system: COLO 205 colon
DU-145 prostate = test system: DU-145 prostate
EKVX NSCLC = test system: EKVX NSCLC
HCC-2998 colon = test system: HCC-2998 colon
HCT-116 colon = test system: HCT-116 colon
HCT-15 colon = test system: HCT-15 colon
HL-60(TB) leukemia = test system: HL-60(TB) leukemia
HOP-62 NSCLC = test system: HOP-62 NSCLC
HOP-92 NSCLC = test system: HOP-92 NSCLC
HS 578T breast = test system: HS 578T breast
HT29 colon = test system: HT29 colon
IGROV1 ovarian = test system: IGROV1 ovarian
KM12 colon = test system: KM12 colon
LOX IMVI melanoma = test system: LOX IMVI melanoma
M14 melanoma = test system: M14 melanoma
MALME-3M melanoma = test system: MALME-3M melanoma
MCF7 breast = test system: MCF7 breast
MDA-MB-231 breast = test system: MDA-MB-231 breast
MDA-MB-435 = test system: MDA-MB-435
MOLT-4 leukemia = test system: MOLT-4 leukemia
NCI-H226 lung = test system: NCI-H226 lung
NCI-H23 lung = test system: NCI-H23 lung
NCI-H460 lung = test system: NCI-H460 lung
NCI-H522 lung = test system: NCI-H522 lung
NCI/ADR-RES ovarian = test system: NCI/ADR-RES ovarian
OVCAR-3 ovarian = test system: OVCAR-3 ovarian
OVCAR-4 ovarian = test system: OVCAR-4 ovarian
OVCAR-5 ovarian = test system: OVCAR-5 ovarian
OVCAR-8 ovarian = test system: OVCAR-8 ovarian
PC-3 prostate = test system: PC-3 prostate
RPMI-8226 leukemia = test system: RPMI-8226 leukemia
RXF 393 renal = test system: RXF 393 renal
SF-268 CNS = test system: SF-268 CNS
SF-295 CNS = test system: SF-295 CNS
SF-539 CNS = test system: SF-539 CNS
SK-MEL-2 melanoma = test system: SK-MEL-2 melanoma
SK-MEL-28 melanoma = test system: SK-MEL-28 melanoma
SK-MEL-5 melanoma = test system: SK-MEL-5 melanoma
SK-OV-3 ovarian = test system: SK-OV-3 ovarian
SN12C renal = test system: SN12C renal
SNB-19 CNS = test system: SNB-19 CNS
SNB-75 CNS = test system: SNB-75 CNS
SW-620 colon = test system: SW-620 colon
T-47D breast = test system: T-47D breast
TK-10 renal = test system: TK-10 renal
U251 CNS = test system: U251 CNS
UACC-257 melanoma = test system: UACC-257 melanoma
UACC-62 melanoma = test system: UACC-62 melanoma
UO-31 renal = test system: UO-31 renal

## CC12OC(C(=O)C13CC3)C1C(=O)c3cccc(O)c3C(=O)C12 (centres undefined)
786-0 renal
  GI50: 6.45 µM
  TGI: 19.2 µM
A498 renal
  GI50: 16.3 µM
  TGI: 30.4 µM
A549 NSCLC
  GI50: 28.7 µM
  TGI: > 100 µM
ACHN renal
  GI50: 2.95 µM
  TGI: > 39.1 µM
BT-549 breast
  GI50: 19.1 µM
  TGI: 58.1 µM
CAKI-1 renal
  GI50: 3.43 µM
  TGI: 11.1 µM
COLO 205 colon
  GI50: 15.5 µM
  TGI: > 96.2 µM
DU-145 prostate
  GI50: 15.3 µM
  TGI: 56.2 µM
EKVX NSCLC
  GI50: 11.8 µM
  TGI: 37.6 µM
HCC-2998 colon
  GI50: 18.5 µM
  TGI: 46.7 µM
HCT-116 colon
  GI50: 4.31 µM
  TGI: 6.42 µM
HCT-15 colon
  GI50: 9.82 µM
  TGI: > 54.8 µM
HL-60(TB) leukemia
  TGI: 0.539 µM
HOP-62 NSCLC
  GI50: 7.21 µM
  TGI: 19.7 µM
HOP-92 NSCLC
  GI50: 31.1 µM
  TGI: > 100 µM
HS 578T breast
  GI50: 25.8 µM
  TGI: 82.1 µM
HT29 colon
  GI50: 10.6 µM
  TGI: > 100 µM
IGROV1 ovarian
  GI50: 12.2 µM
  TGI: > 100 µM
KM12 colon
  GI50: 13.8 µM
  TGI: 38.1 µM
LOX IMVI melanoma
  GI50: 5.1 µM
  TGI: > 100 µM
M14 melanoma
  GI50: 24.6 µM
  TGI: 63.5 µM
MALME-3M melanoma
  GI50: 5.31 µM
  TGI: 14 µM
MCF7 breast
  GI50: 14.3 µM
  TGI: > 57.9 µM
MDA-MB-231 breast
  GI50: 2.43 µM
  TGI: 16.3 µM
MDA-MB-435
  GI50: 16.9 µM
  TGI: > 57.7 µM
MOLT-4 leukemia
  GI50: 1.83 µM
  TGI: > 100 µM
NCI-H226 lung
  GI50: 22.9 µM
  TGI: 78.5 µM
NCI-H23 lung
  GI50: 7.55 µM
  TGI: 22.7 µM
NCI-H460 lung
  GI50: 18.6 µM
  TGI: 68.3 µM
NCI-H522 lung
  GI50: 8.84 µM
  TGI: > 76.9 µM
NCI/ADR-RES ovarian
  GI50: 6.9 µM
  TGI: 25.3 µM
OVCAR-3 ovarian
  GI50: 2.49 µM
  TGI: 19.9 µM
OVCAR-4 ovarian
  GI50: 3.16 µM
  TGI: 12 µM
OVCAR-5 ovarian
  GI50: 24.5 µM
  TGI: > 66.3 µM
OVCAR-8 ovarian
  GI50: 8.12 µM
  TGI: > 38.5 µM
PC-3 prostate
  GI50: 10.3 µM
  TGI: 34.3 µM
RPMI-8226 leukemia
  GI50: 2.22 µM
  TGI: > 100 µM
RXF 393 renal
  GI50: 1.43 µM
  TGI: 9.3 µM
SF-268 CNS
  GI50: 6.08 µM
  TGI: > 68.5 µM
SF-295 CNS
  GI50: 2.68 µM
  TGI: 22.6 µM
SF-539 CNS
  GI50: 5.36 µM
  TGI: > 56.1 µM
SK-MEL-2 melanoma
  GI50: 47.3 µM
  TGI: > 100 µM
SK-MEL-28 melanoma
  GI50: 23.1 µM
  TGI: > 61.4 µM
SK-MEL-5 melanoma
  GI50: 6.79 µM
  TGI: > 100 µM
SK-OV-3 ovarian
  GI50: 22.9 µM
  TGI: > 75.3 µM
SN12C renal
  GI50: 4.96 µM
  TGI: 18.9 µM
SNB-19 CNS
  GI50: 10.4 µM
  TGI: 40.1 µM
SNB-75 CNS
  GI50: 12.5 µM
  TGI: > 37.4 µM
SW-620 colon
  GI50: 4.41 µM
  TGI: > 100 µM
T-47D breast
  GI50: 23.3 µM
  TGI: > 70.6 µM
TK-10 renal
  GI50: 8.82 µM
  TGI: 30.6 µM
U251 CNS
  GI50: 8.29 µM
  TGI: > 58.8 µM
UACC-257 melanoma
  GI50: 19.6 µM
  TGI: 50.8 µM
UACC-62 melanoma
  GI50: 5.23 µM
  TGI: 37.2 µM
UO-31 renal
  GI50: 23.1 µM
  TGI: > 100 µM
